We go through 20 molecules from patent US9586914B2, “Modulators of C3a receptors” (THE UNIVERSITY OF QUEENSLAND, priority 2011, dated 2017).

Where two headings read alike, the source gives them in different places.

One assay concerns the target T1, C3aR (Homo sapiens, UniProt Q16581).
T1 construct: peripheral blood mononuclear cells were isolated from buffy coat (obtained from Australian Red Cross Blood Service, Kelvin Grove); endogenous in cells; host or cells: primary human monocyte-derived macrophages (HMDM) differentiated from CD14+ monocytes of donor buffy coat
T1 sequence (Q16581 1-482): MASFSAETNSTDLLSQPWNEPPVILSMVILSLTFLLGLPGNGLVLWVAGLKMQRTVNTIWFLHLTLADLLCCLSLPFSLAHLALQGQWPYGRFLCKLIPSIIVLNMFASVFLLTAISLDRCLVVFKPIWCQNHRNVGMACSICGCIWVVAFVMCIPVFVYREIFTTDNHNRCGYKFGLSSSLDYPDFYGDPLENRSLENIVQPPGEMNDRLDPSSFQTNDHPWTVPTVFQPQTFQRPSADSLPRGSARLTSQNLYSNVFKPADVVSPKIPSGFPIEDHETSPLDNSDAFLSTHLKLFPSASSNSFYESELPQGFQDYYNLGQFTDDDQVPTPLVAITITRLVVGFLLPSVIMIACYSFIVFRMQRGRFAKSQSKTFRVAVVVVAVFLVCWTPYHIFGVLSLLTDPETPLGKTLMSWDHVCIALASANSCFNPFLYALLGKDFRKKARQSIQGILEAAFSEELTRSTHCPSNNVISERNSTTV
Description: Calcium mobilization assay in HMDM (agonist/antagonist activity). It counts as cell-based. As to conditions: for Emax at 10 µM: read-out: % agonist. On the procedure:
Harvested HMDM cells were washed with 0.9% NaCl solution by centrifugation at 2500 rpm for 5 min, followed by resuspension of the cell pellet with complete media. Cells were seeded at 5×10^4 cells/well in a 96-well black-wall, clear bottom plate (DKSH, Zurich), and left overnight to adhere at 37° C. On the day of the experiment, supernatant was removed and cells were incubated in dye loading buffer (Hank's Balanced Salt Solution (HBSS) with 4 μM Fluo-3, 25 μL pluronic acid, 1% fetal bovine serum (FBS) and 2.5 mM probenecid) for one hour at 37° C. Cells were then washed twice with HBSS and transferred to a Fluorostar spectrofluorimeter (BMG, Durham N.C.) for oxazole compound injection and fluorescence measurements.
Various compounds were examined in the calcium mobilization assay for agonist or antagonist activity compared to hC3a and to the known antagonist SB290157.
HMDMs were seeded into black-wall, clear bottom 96-well plates (Corning Incorporated, NY) at 50,000 cells/well and left to incubate at 37° C. with 5% CO2 overnight for cells to adhere. The medium was removed before being washed with the assay buffer (1×HBSS, 20 mM HEPES, 2.5 mM probenecid, pH 7.4). To each well was added 100 μL of dye-loading buffer made up of 12 mL calcium buffer, 1% FBS, 25 μL of Fluo-3 dye (final concentration of 4 μM) and 25 μL of 20% pluronic acid. The plate was covered in aluminium foil to protect the light-sensitive dye and left to incubate at 37° C. for 1 h. The dye-loading buffer was removed before the cells were washed with the assay buffer to remove excess loading dye. To each well was added 50 μL of fresh assay buffer before the plate was loaded into a FLIPR (Fluorescent Imaging Plate Reader) that can inject treatments and measure any calcium release. To generate agonist plots, calcium release was monitored for 300 seconds. To generate antagonist plots, calcium release was recorded for 900 seconds, which at the same time would allow incubation for the antagonists. After the initial incubation period, an agonist would be added and the response was recorded for 300 seconds. Intracellular release of calcium was recorded via fluorescence measurements at wavelength of 485 nm for excitation and 520 nm for emission.
(In general: A change in cytosolic calcium serves as a functional read-out for many receptors and channels.)

Another assay deals with T2, C3a receptor (C3aR) (Homo sapiens, UniProt Q16581).
T2 construct: peripheral blood mononuclear cells were isolated from buffy coat (obtained from Australian Red Cross Blood Service, Kelvin Grove); endogenous in cells; host or cells: primary human monocyte-derived macrophages (HMDM) differentiated from CD14+ monocytes of donor buffy coat
T2 sequence (Q16581 1-482): T1 sequence (Q16581 1-482)
Description: Competitive binding with [^125I]-C3a in HMDM. To be noted: for remaining activity at 20 µM: 1 h, read-out: %[^125I]-C3a binding. An excerpt: For HMDM, peripheral blood mononuclear cells were isolated from buffy coat (obtained from Australian Red Cross Blood Service, Kelvin Grove) using Ficoll-paque density centrifugation (GE Healthcare Bio-Science, Uppsala, Sweden). CD^14+ monocytes were positively selected using CD^14+ MACS magnetic beads (Miltenyi Biotech, Auburn, Calif., USA). […] Cells were harvested by gentle scraping in saline solution and replated for use on Day 7. […] Unbound radioactivity was removed by filtration through glass microfiber filters GF/B (Whatman Iner. […] The filter was washed 3 times with cold buffer (50 mM Tris-HCl) pH 7.4. […] The −log IC50 for each compound was calculated for separate experiments and express as an arithmetic mean standard error (SE). IC50 values were expressed as a geometric mean.

Setting [1] is: Table 9, Ca^2+ mobilization, HMDM.
[2] abbreviates: Table 9, Ca^2+ mobilization, HMDM, read-out: EC50.
[3] abbreviates: Table 6, competitive binding with [^125I]-C3a, HMDM.
Where [4] appears, read: Table 6, competitive binding with [^125I]-C3a, HMDM, read-out: IC50 (converted).
[5] abbreviates: Table 13, calcium release from HMDM, read-out: Antagonist Activity IC50.
The mark [6] stands for this setting: Table 10, HMDM, read-out: Antagonist Activity Ca^2+ IC50.
The mark [7] stands for this setting: Table 8, HMDM, read-out: Receptor Binding Affinity ^125I IC50.
The mark [8] stands for this setting: Table 10, HMDM, read-out: Agonist Activity EC50.

Regarding `COc1ccc(CC(=O)N[C@@H](CC(C)C)c2nc(C(=O)N[C@@H](CCCNC(=N)N)C(=O)O)c(C)o2)cc1OC` [Compound 43, 3,4-Dimethoxy-phenyl acetic acid-Leucine-5-Methyl-Oxazole-Arginine], the Emax at 10 µM at C3aR turned out to be 67%. For the same molecule, at C3a receptor (C3aR), the remaining activity at 20 µM stood at 65%.
Turning to `CC(C)C[C@H](NC(=O)Cc1ccc(F)cc1)c1nc(C(=O)N[C@@H](CCCNC(=N)N)C(=O)O)co1` [Compound 24, 2-(4-fluorophenyl)acetic acid-Leucine-Oxazole-Arginine-OH], the “pEC50 ± SEM” value at C3aR (setting [1]) is recorded as 6.28 ± 0.16. The EC50 – broadly, the concentration giving half of the maximal effect – at C3aR (setting [2]) was 527 nM. Moreover, the “pIC50 ± SEM” value on C3a receptor (C3aR) (setting [3]) was found to be 6.99 ± 0.10. In addition, the IC50 at C3a receptor (C3aR) (setting [4]) is 102 nM.
As to `Cc1oc([C@H](CC(C)C)NC(=O)NCc2ccccc2)nc1C(=O)N[C@@H](CCCNC(=N)N)C(=O)O` [Compound 46, Benzylisocyanate-Leucine-5-Methyl-Oxazole-Arginine], the Emax at 10 µM at C3aR was 50%. Moreover, the remaining activity at 20 µM at C3a receptor (C3aR) was 61%.
In the same order, the values of `Cc1oc([C@H](CC(C)C)NC(=O)c2cccnc2)nc1C(=O)N[C@@H](CCCNC(=N)N)C(=O)O` [Compound 30] are 68% and 29%.
With `Cc1nc([C@H](CC(C)C)NC(=O)OC(C)(C)C)sc1C(=O)N[C@@H](CCCNC(=N)N)C(=O)O` [Compound 82, Boc-Leucine-thiazole-Arginine-OH], the IC50 at C3aR (setting [5]) is 200 nM; at C3a receptor (C3aR) (setting [4]), 375 nM.
Consider `N=C(N)NCCC[C@H](NC(=O)c1coc(C(c2ccccc2)c2ccccc2)n1)C(=O)O` [Compound 56, 2-Diphenylmethyl-oxazole-4-carboxyl-Arg-OH], for which the EC50 at C3aR (setting [2]) was found to be 6.6 nM; at C3aR (Table 12, read-out: Apparent Agonist Activity EC50), 6.6 nM. The “Agonist Activity (in words)” value at C3aR (Table 10, HMDM) is “partial agonist”. Also, the IC50 at C3aR (setting [6]) was 20 nM; at C3a receptor (C3aR) (setting [4]) it was 37 nM; at C3a receptor (C3aR) (Table 6, competitive binding with [^125I]-C3a, HMDM, read-out: pIC50 ± SEM (converted)), 37.2 nM; on C3a receptor (C3aR) (setting [7]), 1 nM; at C3a receptor (C3aR) (Table 12, read-out: Receptor Binding Affinity pIC50 ± SE (converted)), 37.2 nM.
In the case of `Cc1oc([C@H](CC(C)C)NC(=O)c2cncc(Br)c2)nc1C(=O)N[C@@H](CCCNC(=N)N)C(=O)O` [Compound 48, 5-Bromonicotinic acid-Leucine-5-Methyl-Oxazole-Arginine], on C3aR, the Emax at 10 µM was 68%. Further, on C3a receptor (C3aR), the remaining activity at 20 µM was found to be 32%.
Take `CC[C@H](C)[C@H](NC(=O)c1cncc(Br)c1)c1nc(C(=O)N[C@@H](CCCNC(=N)N)C(=O)O)co1` [Compound 20]: the “pEC50 ± SEM” value on C3aR (setting [1]) worked out at 7.76 ± 0.36. Also, on C3aR (setting [2]), the EC50 is 17 nM. Besides, the “pIC50 ± SEM” value on C3a receptor (C3aR) (setting [3]) turned out to be 8.30 ± 0.10. Also, the IC50 on C3a receptor (C3aR) (setting [4]) was 5 nM.
In the same order, the values of `CC[C@H](C)[C@H](NC(=O)C1CCCc2ccccc21)c1nc(C(=O)N[C@@H](CCCNC(=N)N)C(=O)O)co1` (some centres unmarked) [Compound 21, Tetrahydronapthalene-isoleucine-oxazole-arginine-OH] are 6.62 ± 0.28, 240 nM, 6.98 ± 0.11 and 104 nM.
Turning to `N=C(N)NCCC[C@H](NC(=O)c1sc(C(c2ccccc2)c2ccccc2)nc1-c1ccccc1)C(=O)O` [Compound 65, 2-Diphenylmethyl-4-phenyl thiazole-5-carboxyl-Arg-OH], the IC50 at C3aR (setting [6]) is 67000 nM; at C3a receptor (C3aR) (setting [7]), 3370 nM.
For `COc1ccc(CCC(=O)N[C@@H](CC(C)C)c2nc(C(=O)N[C@@H](CCCNC(=N)N)C(=O)O)c(C)o2)cc1` [Compound 41, 3-(4-Methoxyphenyl)propionic acid-Leucine-5-Methyl-Oxazole-Arginine], the Emax at 10 µM at C3aR amounted to 44%. Also, on C3a receptor (C3aR), the remaining activity at 20 µM is 44%.
As to `N=C(N)NCCC[C@H](NC(=O)c1nc(C(c2ccccc2)c2ccccc2)[nH]c1-c1ccccc1)C(=O)O` [Compound 62, 2-Diphenylmethyl-4-phenyl imidazole-5-carboxyl-Arg-OH], the EC50 at C3aR (setting [8]) is greater than 100000 nM. Further, the IC50 on C3aR (setting [6]) turned out to be 600 nM; at C3a receptor (C3aR) (setting [7]) it was 46 nM.
For the molecule `Cc1oc([C@H](CC(C)C)NC(=O)c2ccccn2)nc1C(=O)N[C@@H](CCCNC(=N)N)C(=O)O` [Compound 29, Picolinic acid-Leucine-5-Methyl-Oxazole-Arginine], on C3aR, the Emax at 10 µM was 77%. Besides, the remaining activity at 20 µM at C3a receptor (C3aR) was determined as 31%.
With `N=C(N)NCCC[C@H](NC(=O)c1ccc(C(c2ccccc2)c2ccccc2)s1)C(=O)O` [Compound 60, 5-Diphenylmethyl-thiophene-2-carboxyl-Arg-OH], the EC50 at C3aR (setting [8]) is greater than 100000 nM. Moreover, the IC50 is 70 nM on C3aR (setting [6]); 140 nM on C3a receptor (C3aR) (setting [7]); 63.1 nM at C3a receptor (C3aR) (Table 14, binding affinity for C3aR on HMDM, read-out: -Log IC50 (converted)).
As to `Cc1oc(C(c2ccccc2)c2ccccc2)nc1C(=O)N[C@@H](CCCNC(=N)N)C(=O)O` [Compound 61, 2-Diphenylmethyl-5-methyl oxazole-4-carboxyl-Arg-OH], on C3aR (Table 10, HMDM), the “Agonist Activity (in words)” value is on record as “partial agonist”. For the same molecule, the IC50 was found to be 30 nM on C3aR (setting [6]) and 740 nM on C3a receptor (C3aR) (setting [7]). In addition, on C3a receptor (C3aR) (Table 14, binding affinity for C3aR on HMDM), the “-Log IC50” value is listed as 8.0.
With `Cc1oc([C@H](CC(C)C)NC(=O)CC2CCCCC2)nc1C(=O)N[C@@H](CCCNC(=N)N)C(=O)O` [Compound 33, Cyclohexyl acetic acid-Leucine-5-Methyl-Oxazole-Arginine], the Emax at 10 µM on C3aR worked out at 69%. Further, the remaining activity at 20 µM at C3a receptor (C3aR) came out at 26%.
Take `CC(C)C[C@H](NC(=O)OC(C)(C)C)c1nc(C(=O)N[C@@H](CCCNC(=N)N)C(=O)NS(C)(=O)=O)co1` [Compound 93, tert-butyl ((S)-1-(4-(((S)-5-guanidino-1-(methylsulfonamido)-1-oxopentan-2-yl)carbamoyl)oxazol-2-yl)-3-methylbutyl)carbamate]: the IC50 at C3aR (setting [5]) is 2000 nM; on C3a receptor (C3aR) (setting [4]), 30 nM.
Consider `Cc1oc([C@H](CC(C)C)NC(=O)c2cc3ccccc3s2)nc1C(=O)N[C@@H](CCCNC(=N)N)C(=O)O` [Compound 27, Benzothiophene-2-carboxylic acid-Leucine-5-Methyl-Oxazole-Arginin], for which the Emax at 10 µM on C3aR came to 62%. Moreover, at C3a receptor (C3aR), the remaining activity at 20 µM was determined as 14%.
On to `N#CN=C(N)NCCC[C@H](NC(=O)c1ccc(C(c2ccccc2)c2ccccc2)s1)C(=O)NS(=O)(=O)c1ccccc1` [Compound 96, (S)-5-benzhydryl-N-(5-(2-cyanoguanidino)-1-oxo-1-(phenylsulfonamido)pentan-2-yl)thiophene-2-carboxamide], for which the IC50 on C3aR (setting [5]) was 2000 nM; on C3a receptor (C3aR) (setting [4]), 888 nM.
`CC[C@H](C)[C@H](NC(=O)c1ccccc1)c1nc(C(=O)N[C@@H](CCCNC(=N)N)C(=O)O)co1` [Compound 6, Benzoyl Isoleucine Oxazole Arginine-OH]: the “pEC50 ± SEM” value at C3aR (setting [1]) was found to be 5.30 ± 0.18. At C3aR (setting [2]), the EC50 came out at 5000 nM. Also, the “pIC50 ± SEM” value on C3a receptor (C3aR) (setting [3]) was determined as 7.58 ± 0.07. For the same molecule, the IC50 at C3a receptor (C3aR) (setting [4]) was 26 nM.
